{"source": "patent US9003693B2", "about": "“Control of zebra mussels in closed service water systems” (ASI Group Ltd., priority 2013, dated 2015)", "key": {"adult zebra mussels": {"tested_on": "adult zebra mussels", "procedure": "Laboratory research was carried out to investigate potash for mussel control by itself or in combination with oxidizing agents such as chlorine or hydrogen peroxide.\nExperiments were carried out with adult zebra mussels using potassium chloride (KCl) alone, as well as chloramine, hydrogen peroxide and combinations thereof to determine the estimated time to 95% mortality. Experimentation was carried out at 100 mg/L K^+ and test temperatures ranged from 2 to 30° C."}, "Rainbow trout": {"tested_on": "Rainbow trout", "test": "KCl toxicity test on non-target species (EPS protocol)", "type": "in vivo", "conditions": "acute test", "procedure": "(§1) Studies were performed to investigate the environmental effects on non-target species of treatment with concentrations of potassium effective for controlling zebra mussels. As set out below, potassium when discharged at concentrations of 100 mg/l or less is an environmentally benign method of zebra mussel control. This is an important advantage over other methods of controlling zebra mussels such as by the use of chlorine or other oxidizing agents which can result in significant non-target species toxicity.\n(§2) A stock solution at 1000 mg/l KCl was used to set all tests. Dilutions were made from these stocks. Test methods were as dictated by EPS protocols for each test organism."}, "Ceriodaphnia dubia": {"tested_on": "Ceriodaphnia dubia", "test": "KCl toxicity test on non-target species (EPS protocol)", "type": "in vivo", "procedure": "as §1, §2"}, "Fathead minnow": {"tested_on": "Fathead minnow", "test": "KCl toxicity test on non-target species (EPS protocol)", "type": "in vivo", "procedure": "as §1, §2"}, "Daphnia magna": {"tested_on": "Daphnia magna", "test": "KCl toxicity test on non-target species (EPS protocol)", "type": "in vivo", "conditions": "acute test", "procedure": "as §1, §2"}, "[1]": {"tested_on": "young adult (<1.5 cm) zebra mussels", "test": "Flow-through contact chamber mortality study, adult mussels", "type": "in vivo", "conditions": "for Final mortality of adult mussels: end of the 52 day trial", "procedure": "(§3) Mortality studies using flow through contact chambers were performed with young adult (<1.5 cm) zebra mussels and naturally occurring veliger populations at a small tributary of a canal located in southern Ontario, Canada. Water temperatures ranged between 20 and 25° C. throughout the trial.\nAdult zebra mussels were exposed to three concentrations of K^+ (40 mg/l, 30 mg/l, and 20 mg/l) as well as a control chamber. Each concentration as well as the control was replicated three times. The nature of the design allowed for simultaneous trials with adults and veligers. Sixty adult mussels (six groups of ten) were exposed in each replicate test concentration and control tank. Mussels were contained in PVC mesh baskets which allowed free flow of water while maintaining the mussels in discrete groups of ten.\n(§4) A concentrated potassium solution was metered into each replicate test line prior to its entering the test tanks from a pre-mixed batch tank. Potassium source was commercial grade potash which was 60% potassium by weight. The potassium concentration was controlled through differential metering rates. Flow-through trials were carried out for 52 days at which point final mortality in adults was recorded."}, "[2]": {"tested_on": "naturally occurring veliger larvae", "test": "Larval settlement on PVC settling plates in flow-through tanks", "type": "in vivo, zebra mussel (Dreissena polymorpha)", "conditions": "52 day trial period; for Larval (veliger) settlement: 30 mg/l K+", "procedure": "as §3\nIn addition to adult trials, six PVC settling plates were installed in one replicate tank at each test concentration as well as the control. The presence of naturally occurring veliger larvae in the water source provided the opportunity of determining settling rates at each test concentration.\nas §4"}}, "note": "Read-outs that look alike come from different tables or passages of the source. Marks after values point to notes of the source that are not given here."}
{"smiles": "[Cl-].[K+]", "note": "[KCl, potassium chloride]", "values": [{"measurement": "Estimated time (hours) to 95% mortality", "setting": "adult zebra mussels; KCl at 100 mg/L K+, 10-12 °C, extrapolated value", "result": "283* hours"}, {"measurement": "Estimated time (hours) to 95% mortality", "setting": "adult zebra mussels; KCl at 100 mg/L K+, 12-14 °C", "result": 165, "unit": "h"}, {"measurement": "Estimated time (hours) to 95% mortality", "setting": "adult zebra mussels; KCl at 100 mg/L K+, 13-17 °C", "result": 113, "unit": "h"}, {"measurement": "Estimated time (hours) to 95% mortality", "setting": "adult zebra mussels; KCl at 100 mg/L K+, 14-26 °C", "result": 22, "unit": "h"}, {"measurement": "Estimated time (hours) to 95% mortality", "setting": "adult zebra mussels; KCl at 100 mg/L K+, 20-21 °C", "result": 56, "unit": "h"}, {"measurement": "Estimated time (hours) to 95% mortality", "setting": "adult zebra mussels; KCl at 100 mg/L K+, 22-24 °C, extrapolated value", "result": "33* hours"}, {"measurement": "LC50", "setting": "Rainbow trout", "result": 1248.4, "unit": "µg/mL"}, {"measurement": "IC25", "setting": "Ceriodaphnia dubia", "result": 189.3, "unit": "µg/mL"}, {"measurement": "IC50", "setting": "Ceriodaphnia dubia", "result": 256.8, "unit": "µg/mL"}, {"measurement": "LC50", "setting": "Ceriodaphnia dubia", "result": 219.6, "unit": "µg/mL"}, {"measurement": "GROWTH/REPRODUCTIVE DATA LOEC", "setting": "Ceriodaphnia dubia; NED = no effect detected", "result": "NED"}, {"measurement": "GROWTH/REPRODUCTIVE DATA NOEC", "setting": "Ceriodaphnia dubia; NED = no effect detected", "result": "NED"}, {"measurement": "GROWTH/REPRODUCTIVE DATA TEC", "setting": "Ceriodaphnia dubia; NED = no effect detected", "result": "NED"}, {"measurement": "SURVIVAL DATA LOEC", "setting": "Ceriodaphnia dubia; chronic test", "result": 385, "unit": "mg/L"}, {"measurement": "SURVIVAL DATA NOEC", "setting": "Ceriodaphnia dubia; chronic test", "result": 193, "unit": "mg/L"}, {"measurement": "SURVIVAL DATA TEC (threshold effect concentration)", "setting": "Ceriodaphnia dubia; chronic test", "result": 272.6, "unit": "mg/L"}, {"measurement": "IC25", "setting": "Fathead minnow", "result": 736.2, "unit": "µg/mL"}, {"measurement": "IC50", "setting": "Fathead minnow", "result": 892.5, "unit": "µg/mL"}, {"measurement": "LC50", "setting": "Fathead minnow", "result": 512.7, "unit": "µg/mL"}, {"measurement": "GROWTH/REPRODUCTIVE DATA LOEC", "setting": "Fathead minnow; NED = no effect detected", "result": "NED"}, {"measurement": "GROWTH/REPRODUCTIVE DATA NOEC", "setting": "Fathead minnow; NED = no effect detected", "result": "NED"}, {"measurement": "GROWTH/REPRODUCTIVE DATA TEC", "setting": "Fathead minnow; NED = no effect detected", "result": "NED"}, {"measurement": "SURVIVAL DATA LOEC", "setting": "Fathead minnow; chronic test", "result": 603, "unit": "mg/L"}, {"measurement": "SURVIVAL DATA NOEC", "setting": "Fathead minnow; chronic test", "result": 302, "unit": "mg/L"}, {"measurement": "SURVIVAL DATA TEC (threshold effect concentration)", "setting": "Fathead minnow; chronic test", "result": 426.7, "unit": "mg/L"}, {"measurement": "LC50", "setting": "Daphnia magna", "result": 188.8, "unit": "µg/mL"}]}
{"smiles": "NCl", "note": "[chloramine]", "values": [{"measurement": "Estimated time (hours) to 95% mortality", "setting": "adult zebra mussels; chloramine 0.5 mg/L, 10-12 °C, extrapolated value", "result": "480* hours"}, {"measurement": "Estimated time (hours) to 95% mortality", "setting": "adult zebra mussels; chloramine 0.5 mg/L, 14-26 °C, extrapolated value", "result": "97* hours"}, {"measurement": "Estimated time (hours) to 95% mortality", "setting": "adult zebra mussels; chloramine 1.0 mg/L, 10-12 °C", "result": 258, "unit": "h"}, {"measurement": "Estimated time (hours) to 95% mortality", "setting": "adult zebra mussels; chloramine 1.0 mg/L, 13-17 °C", "result": 209, "unit": "h"}, {"measurement": "Estimated time (hours) to 95% mortality", "setting": "adult zebra mussels; chloramine 1.0 mg/L, 14-26 °C", "result": 60, "unit": "h"}, {"measurement": "Estimated time (hours) to 95% mortality", "setting": "adult zebra mussels; chloramine 2.0 mg/L, 13-17 °C", "result": 87, "unit": "h"}]}
{"smiles": "OO", "note": "[H2O2, hydrogen peroxide]", "values": [{"measurement": "Estimated time (hours) to 95% mortality", "setting": "adult zebra mussels; H2O2 5 mg/L, 12-14 °C, extrapolated value", "result": "1714* hours"}, {"measurement": "Estimated time (hours) to 95% mortality", "setting": "adult zebra mussels; H2O2 5 mg/L, 20-21 °C, extrapolated value", "result": "455* hours"}, {"measurement": "Estimated time (hours) to 95% mortality", "setting": "adult zebra mussels; H2O2 5 mg/L, 22-24 °C, extrapolated value", "result": "294* hours"}, {"measurement": "Estimated time (hours) to 95% mortality", "setting": "adult zebra mussels; H2O2 10 mg/L, 12-14 °C", "result": 227, "unit": "h"}, {"measurement": "Estimated time (hours) to 95% mortality", "setting": "adult zebra mussels; H2O2 10 mg/L, 20-21 °C", "result": 36, "unit": "h"}, {"measurement": "Estimated time (hours) to 95% mortality", "setting": "adult zebra mussels; H2O2 10 mg/L, 22-24 °C", "result": 21, "unit": "h"}]}
{"smiles": "[K+]", "note": "[potassium cation]", "values": [{"measurement": "Final mortality of adult mussels", "setting": "[1]; 20 mg/l K+, water 20-25 °C", "result": 73, "unit": "%"}, {"measurement": "Final mortality of adult mussels", "setting": "[1]; 30 mg/l K+, water 20-25 °C", "result": 91, "unit": "%"}, {"measurement": "Mortality of a target population", "setting": "[1]; 40 mg/L potassium, within two weeks, water temperatures above 15 °C", "result": "up to 100%"}, {"measurement": "Time to complete mortality of adult mussels", "setting": "[1]; 40 mg/l K+, flow-through, water 20-25 °C", "result": "≤ 25", "unit": "days"}, {"measurement": "Mortality of zebra mussels over time (in words)", "setting": "[1]; 40 mg/l potassium", "result": "significant mortality within two weeks and complete mortality in this trial in just over three weeks"}, {"measurement": "Larval (veliger) settlement", "setting": "[2]", "result": "No larval settlement was detected"}, {"measurement": "Larval (veliger) settlement", "setting": "[2]; listed as Potassium", "result": "effective at preventing settlement of veligers"}, {"measurement": "Larval settlement", "setting": "[2]; 40 mg/l K+", "result": "No larval settlement was detected"}, {"measurement": "Zebra mussel mortality", "setting": "adult zebra mussels; 100 mg/L potassium, in 48 hours, water temperatures above 15 °C", "result": 100, "unit": "%"}, {"measurement": "Estimated time (hours) to 95% mortality", "setting": "adult zebra mussels; KCl at 100 mg/L K+, 14-26 °C", "result": 22, "unit": "h"}]}
